Source: patent US20200369728A1, “PEPTIDOMIMETIC MACROCYCLES AND USES THEREOF” (Aileron Therapeutics, Inc., priority 2015, published 2020)
Entries after “also recorded” stand apart in the source; their conditions may differ. Like-named read-outs stand apart in the source and are kept apart here.

Legend:
Mel-Ho (V600E) = experiment: Combination with PLX4032 in Mel-Ho; format: cell-based
MCF-7 = experiment: CyQUANT cell viability, MCF-7; format: cell-based, human; conditions: MCF-7, sequential treatment, 72 hrs
Description: Cells were also evaluated for viability using the CyQUANT method after beginning treatment (FIGS. 78A and 79A). Cells were evaluated for viability using the CyQUANT method after beginning the simultaneous treatments (FIGS. 78B and 79B). […] The data were expressed as log(CI).
The anticancer activity of the combination treatment was assessed based on the order of addition of the drugs.

DOHH-2 = experiment: WST-1 / MTT cell viability, DOHH-2; format: cell-based, human
Description: Initially, various DOHH-2 cell numbers were plated and evaluated 3-7 days later to determine the optimal number of cells to be plated and treatment duration.
(§2) A drug combination index plot was used to assess the synergistic, additive, or antagonistic properties of each combination treatment. […] Combination index (CI) values were calculated using the CompuSyn software. The data were expressed as log(CI).

primary AML cell line [1] = experiment: Clonogenicity assay on primary AML cell lines; format: cell-based; conditions: 0.1-1.0 μM
Description: A clonogenicity assay was then performed and the number of clonies was counted.

primary AML cell line [2] = experiment: Apoptosis assay on primary AML cell lines; format: cell-based; conditions: primary AML cells, 1.0, 5.0 or 10.0 μM
Description: (§1) Cells were probed with DAPI and a FITC-labeled anti-Annexin-V antibody. FACS analysis was performed to determine the number of viable cells and the number of cells in early apoptosis, late apoptosis and undergoing necrosis and the results were plotted.

p53 = p53 stabilization in AML cells (Western blot, dose and time); format: cell-based; conditions: AML p53 wild type cell lines, 0.1-10.0 μM, 24, 48 or 72 hrs
Description: (§3) Lysates were subjected to SDS-PAGE and probed by Western blotting with antibodies specific to MDM2, p53, p21, and β-Actin.

MOLT-3 = experiment: WST-1 / MTT cell proliferation assay, MOLT-3; format: cell-based, human
Description: All media were supplemented with 10% (v/v) fetal calf serum, 100 units penicillin and 100 μg/ml streptomycin at 37° C. and 5% CO2.
One day prior to assaying, cells were trypsinized, counted and seeded at pre-determined densities in 96-well plates as follows: MCF-7, 5000 cells/well/200 μl; MOLT-3, 30,000 cells/well/200 μl. […] The WST-1 variant of the MTT assay was used to measure cell viability according to the manufacturer's protocol. WST-1 is a cell-impermeable, sulfonated tetrazolium salt that can be used to examine cell viability without killing the cells.
Initially, various MOLT-3 cell numbers were plated and evaluated 3-7 days later to determine the optimal number of cells to be plated and treatment duration.
Cells were evaluated for viability by WST-1 assay or MTT assay 3-7 days after beginning the sequential treatment (FIGS. 33 and 34).
Cells were evaluated for viability by WST-1 assay or MTT assay 3-7 days after beginning treatment with rituximab (FIGS. 68B and 69B) or romidepsin (FIGS. 71B and 72B).

[3] = test system: Molm13, OCI/AML3, Molm14, HL60 and ML2 cell lines; experiment: Apoptosis assay of AML cell lines (DAPI / Annexin-V FACS); format: cell-based; conditions: p53 wild type AML cell lines, 1.0, 5.0 or 10.0 μM
Description: as §1

A375 = experiment: Cell viability, A375 melanoma cell line (single agents and combinations); format: cell-based, human; conditions: for combination effect with PLX4032 (Zelboraf, vemurafenib): B-Raf-mutant melanoma cell line A375
p53-pathway [4] = experiment: Western blot of p53-pathway, primary AML cells; format: cell-based; conditions: 1.0 or 5.0 μM
Description: as §3

MV4-11 = experiment: WST-1 / MTT cell viability, MV4-11
Description: Initially, various MV4-11 cell numbers were plated and evaluated 3-7 days later to determine the optimal number of cells to be plated and treatment duration.
Cells were evaluated for viability by WST-1 assay or MTT assay 3-7 days after beginning treatment.
as §2

p53-pathway [5] = experiment: Western blot of p53-pathway, Molm13, OCI/AML3, Molm14 and ML2 cell lines; format: cell-based; conditions: Molm13, OCI/AML3, Molm14 and ML2, 1.0 μM
Description: The Molm13, OCI/AML3, Molm14 and ML2 cell lines were treated with vehicle or 1.0 μM Aileron peptide (FIG. 1B).

[6] = test system: Molm13, OCI/AML3, Molm14, HL60 and ML2 cell lines; experiment: Clonogenicity assay on AML cell lines; format: cell-based; conditions: p53 wild type cell lines, 1.0 μM
Description: A clonogenicity assay was then performed and the number of clonies was counted (FIG. 6).

p53-pathway [7] = experiment: mRNA expression of p21, MDM2, Puma, Bax, Gadd45a in Molm13 and Oci/AML3; format: cell-based; conditions: Molm13 and Oci/AML3, 0.1-10.0 μM
Excerpt: Expression levels were normalized to GAPDH mRNA expression levels.

[8] = DOHH-2, sequential treatment, 72 hrs
[9] = MV4-11, sequential treatment, 72 hrs

In the case of `CC(=O)N[C@@H](CC(C)C)C(=O)N[C@H](C(=O)N[C@@H](Cc1ccccc1)C(=O)N[C@]1(C)CCCCCCC=CCCC[C@@](C)(C(=O)N[C@@H](C)C(=O)N[C@@H](C)C(=O)N[C@@H](C)C(=O)N[C@@H](C)C(=O)N[C@@H](C)C(=O)N[C@H](C)C(N)=O)NC(=O)[C@H](CC(C)C)NC(=O)[C@H](CCC(N)=O)NC(=O)[C@H](C)NC(=O)[C@H](Cc2c[nH]c3ccccc23)NC(=O)[C@H](Cc2ccc(O)cc2)NC(=O)[C@H](CCC(=O)O)NC1=O)[C@@H](C)O` [Aileron peptide 1], the “combination effect with PLX4032 (Zelboraf)” value (Mel-Ho (V600E)) is reported as “synergy”, the “order of addition: effect on cell growth, AP1 and palbociclib” value (MCF-7) is reported as “suppressed MCF-7 cell growth with or without palbociclib” and the “combination effect of AP1 with rituximab” value (DOHH-2; DOHH-2 (figure legends), listed as AP1) is reported as “complementary in vitro anticancer activity; also recorded: additive or better complimentarity”. For the same compound, the “order of addition: effect on cell growth, AP1 and CTX” value (DOHH-2; [8]) was “suppressed DOHH-2 cell growth with or without CTX”, the “order of addition: effect on cell growth, AP1 and VCR” value (DOHH-2; [8]) was “suppressed DOHH-2 cell growth with or without VCR” and the “combination effect of AP1 with CTX” value (DOHH-2; DOHH-2, listed as AP1) was “complementary in vitro anticancer activity; also recorded: synergistic; also recorded: additive or better complimentarity”. For the same compound, the “combination effect of AP1 with VCR” value (DOHH-2; DOHH-2, listed as AP1) was “complementary in vitro anticancer activity; also recorded: mostly synergistic; also recorded: additive or better complimentarity”, the EC50 (DOHH-2; single agent, read-out: EC50 on DOHH-2 cells) was 60 nM and the clonogenic capacity (primary AML cell line [1]) was “inhibited its clonogenic capacity to a higher extent”. The apoptotic cell death (primary AML cell line [2]) was “induces apoptotic cell death”, the p53 stabilization (p53) was “stabilizes p53 in a time and dose dependant manner” and the “combination effect of AP1 with romidepsin” value (MOLT-3) was “enhances Aileron peptide 1 inhibition of cancer cell proliferation and cell killing”. The “combination effect of AP1 with romidepsin” value (MOLT-3; listed as AP1) was “complementary in vitro anticancer activity; also recorded: mostly additive complimentarity”, the apoptotic cell death [3] was “induces apoptotic cell death” and the “combination effect with PLX4032 (Zelboraf, vemurafenib)” value (A375) was “synergy”. The “combination effect with PLX4032 (Zelboraf, vemurafenib)” value (A375; listed as AP1) was “additive or better complimentarity”, the EC50 (A375; single agent, read-out: EC50 on A375 cells) was 70 nM and the “activation of the p53-pathway” value (p53-pathway [4]) was “activates the p53-pathway”. The “order of addition: effect on cell growth, AP1 and Ara-C” value (MV4-11; [9]) was “suppressed MV4-11 cell growth with or without Ara-C”, the “order of addition: effect on cell growth, AP1 and azacitidine” value (MV4-11; [9]) was “suppressed MV4-11 cell growth with or without azacitidine” and the “order of addition: effect on cell growth, AP1 and decitabine” value (MV4-11; [9]) was “suppressed MV4-11 cell growth with or without decitabine”. For the same compound, the “order of addition: effect on cell growth, AP1 and midostaurin” value (MV4-11; [9]) was “suppressed MV4-11 cell growth with or without midostaurin”, the “combination effect of AP1 with Ara-C” value (MV4-11; MV4-11, listed as AP1) was “complementary in vitro anticancer activity; also recorded: mostly additive with some degree of synergy; also recorded: additive or better complimentarity” and the “combination effect of AP1 with azacitidine” value (MV4-11; MV4-11, listed as AP1) was “complementary in vitro anticancer activity; also recorded: mostly additive with some synergy; also recorded: additive or better complimentarity”. The “combination effect of AP1 with decitabine” value (MV4-11; MV4-11, listed as AP1) was “complementary in vitro anticancer activity; also recorded: mostly additive; also recorded: additive or better complimentarity”, the “combination effect of AP1 with midostaurin” value (MV4-11; MV4-11, listed as AP1) was “complementary in vitro anticancer activity; also recorded: mostly synergistic; also recorded: additive or better complimentarity” and the “activation of the p53-pathway” value (p53-pathway [5]) was “activates the p53-pathway”. For the same compound, the clonogenic capacity [6] was “inhibited their clonogenic capacity” and the “activation of the p53-pathway (mRNA normalized to GAPDH)” value (p53-pathway [7]) was “activates the p53-pathway”.
